In the NIST ThermoML archive (doi:10.1016/j.jct.2008.01.002):
Numbers after ± are expanded uncertainties.

Tests used:
[1] = Liquid; for mass density: 298.15 K, 101.33 kPa; for Normal boiling temperature: Closed cell (Static) method
[2] = refractive index (Na D-line) (dimensionless); conditions: 298.15 K; 101.33 kPa; Liquid; Standard Abbe refractometry

mass density [1] [kg/m3] | Normal boiling temperature [1] [°C] | refractive index [2] | mass density ([1]; Vibrating tube method) [kg/m3] | SMILES
741.81 ± 0.56 | 90.01 ± 0.2 | 1.3784 ± 0.0005 | – | CCCOCCC [dipropyl ether]
– | 100.00 ± 0.2 | 1.3332 ± 0.0005 | – | O [water]
718.32 ± 0.96 | 68.2 ± 0.2 | 1.3652 ± 0.0005 | – | CC(C)OC(C)C [diisopropyl ether]
– | 82.10 ± 0.2 | 1.3754 ± 0.0005 | 782.69 ± 0.12 | CC(C)O [propan-2-ol]
799.62 ± 0.79 | 96.60 ± 0.2 | 1.3836 ± 0.0005 | – | CCCO [propan-1-ol]
